pIC50: −log10 of the molar value.
Experiments:
Staphylococcus aureus = assay: Antibacterial activity against Staphylococcus aureus ATCC 25923 assessed as inhibition of bacterial growth incubated for 24 hrs by spectrophotometry; assay type: functional, organism-based; conditions: ATCC 25923, 24 h
Escherichia coli = assay: Antibacterial activity against Escherichia coli ATCC 11775 assessed as inhibition of bacterial growth incubated for 24 hrs by spectrophotometry; assay type: functional, organism-based; conditions: ATCC 11775, 24 h
Candida albicans = assay: Antifungal activity against Candida albicans ATCC 10231 assessed as inhibition of fungal growth incubated for 48 hrs by spectrophotometry; assay type: functional, organism-based; conditions: ATCC 10231, 48 h
SW-620 = assay: Cytotoxicity against human SW620 cells assessed as inhibition of cell growth incubated for 48 hrs by MTT assay; assay type: functional, cell-based; conditions: SW-620, 48 h
NCI-H460 = assay: Cytotoxicity against human NCI-H460 cells assessed as inhibition of cell growth incubated for 48 hrs by MTT assay; assay type: functional, cell-based; conditions: NCI-H460, 48 h

Measured: pIC50

C/C1=C\[C@@H](C)[C@H](O[C@@H]2CC[C@H](O)[C@@H](C)O2)c2cc(O)cc3c2O[C@](C)(C(=O)N3)C(=O)[C@@H](C)C1
< 4.52: all assays above

CCC(=O)[C@@H](C)C/C(C)=C/[C@@H](C)[C@H](O[C@@H]1CC[C@@H](O)[C@@H](C)O1)C1=CC(=O)C=C(N)C1=O
< 4.52: all assays above

C/C1=C\[C@@H](C)[C@H](O)c2cc(O)cc3c2O[C@](C)(C(=O)N3)C(=O)[C@@H](C)C1
< 4.52: all assays above

C/C1=C\[C@@H](C)[C@H](O)C2=CC(=O)C(N)=C(NC(=O)C(C)C(=O)[C@@H](C)C1)C2=O (stereo not given in full)
< 4.52: all assays above

C/C1=C\[C@@H](C)[C@H](O)c2cc(O)cc3c2O[C@](C)(C(=O)N3)C(=O)[C@H](C)C1
< 4.52: all assays above

C/C1=C\[C@@H](C)[C@H](O)c2cc(O)cc(c2O)NC(=O)[C@@H](C)C(=O)[C@@H](C)C1
< 4.52: all assays above

C/C1=C\C(C)C(O)c2cc(O)cc3c2OC(C)(C(=O)N3)C(=O)C(C)C1 (stereo not given)
< 4.52: all assays above

C/C1=C\C(C)C(O)c2cc(O)cc3c2OC(CO)(C(=O)N3)C(=O)C(C)C1 (stereo not given)
< 4.52: all assays above

C/C1=C\[C@@H](C)[C@H](O[C@@H]2CC[C@@H](O)[C@@H](C)O2)C2=CC(=O)C(N)=C(NC(=O)C(C)C(=O)[C@@H](C)C1)C2=O (stereo not given in full)
< 4.52: all assays above

C/C1=C\[C@@H](C)[C@H](O[C@@H]2CC[C@@H](O)[C@@H](C)O2)c2cc(O)cc3c2O[C@](C)(C(=O)N3)C(=O)[C@@H](C)C1
< 4.52: all assays above

From ChEMBL document CHEMBL5634204, “Goondansamycins A-H: Benzenoid Ansamycins from an Australian Volcanic Crater Soil-Derived Actinomadura sp. S4S-00069B08” (J Nat Prod, 2024)
